This is an account of results in paper PMC12206033, “Selective inhibition of TRPV3 channel by natural rosmarinic acid and its analogs for alleviation of skin lesions through downregulation of NF-κB pathway” (The Journal of Biological Chemistry, 2025).

The target of assay [1] is T1, hTRPA1 (Homo sapiens, UniProt O75762).
T1 construct: expressed in transfected cells; host or cells: HEK293T
Description: whole-cell patch-clamp of hTRPA1 currents activated by allyl isothiocyanate. The assay is classed as cell-based. The note with it: ROSA 50 μM; agonist allyl isothiocyanate 300 μM; read-out: inhibition of TRPA1 currents. As for the experimental part: (§1) HEK293T cell line was obtained from the Cell Resource Center, Peking Union Medical College. HEK293T cells were maintained in Dulbecco’s modified Eagle’s medium (DMEM, Gibco) supplemented with 10% fetal bovine serum at 37 °C with 5% CO2. […] The next day, determine the plasmid transfection status by observing green fluorescence based on expression of enhanced GFP as an indicator. […] When conducting experiments on HEK293T cells transfected with G573S point mutant TRPV3 plasmid, we replaced culture medium with or without compounds after 4 h of transfection and then observed green fluorescence of HEK293T cell after 10 h. As for the relative fluorescence intensity, we convert the image to 8 bit grayscale using ImageJ (Https://imagej.net/software/fiji/downloads) and set an appropriate threshold value to reduce background noise and enhance the image contrast.
(§2) All patch-clamp recordings were conducted 16 to 24 h after transfection using an EPC10 amplifier powered by PatchMaster software (HEKA) (https://www.heka.com/downloads/downloads_main.html#down_patchmaster) at room temperature. […] Currents were recorded at a potential ramp from −100 mV to +100 mV for 1000 ms with 1000-ms intervals (for whole-cell recordings) or a persistent potential of −60 mV (inside-out patch recordings). […]
In general terms: In patch-clamp work, channel activity is measured electrically.

The target in assay [2] is T2, TRPV3 T636A (Homo sapiens, UniProt Q8NET8, T636A).
T2 construct: expressed in transfected cells; host or cells: HEK293T
T2 sequence (Q8NET8 1-790 T636A): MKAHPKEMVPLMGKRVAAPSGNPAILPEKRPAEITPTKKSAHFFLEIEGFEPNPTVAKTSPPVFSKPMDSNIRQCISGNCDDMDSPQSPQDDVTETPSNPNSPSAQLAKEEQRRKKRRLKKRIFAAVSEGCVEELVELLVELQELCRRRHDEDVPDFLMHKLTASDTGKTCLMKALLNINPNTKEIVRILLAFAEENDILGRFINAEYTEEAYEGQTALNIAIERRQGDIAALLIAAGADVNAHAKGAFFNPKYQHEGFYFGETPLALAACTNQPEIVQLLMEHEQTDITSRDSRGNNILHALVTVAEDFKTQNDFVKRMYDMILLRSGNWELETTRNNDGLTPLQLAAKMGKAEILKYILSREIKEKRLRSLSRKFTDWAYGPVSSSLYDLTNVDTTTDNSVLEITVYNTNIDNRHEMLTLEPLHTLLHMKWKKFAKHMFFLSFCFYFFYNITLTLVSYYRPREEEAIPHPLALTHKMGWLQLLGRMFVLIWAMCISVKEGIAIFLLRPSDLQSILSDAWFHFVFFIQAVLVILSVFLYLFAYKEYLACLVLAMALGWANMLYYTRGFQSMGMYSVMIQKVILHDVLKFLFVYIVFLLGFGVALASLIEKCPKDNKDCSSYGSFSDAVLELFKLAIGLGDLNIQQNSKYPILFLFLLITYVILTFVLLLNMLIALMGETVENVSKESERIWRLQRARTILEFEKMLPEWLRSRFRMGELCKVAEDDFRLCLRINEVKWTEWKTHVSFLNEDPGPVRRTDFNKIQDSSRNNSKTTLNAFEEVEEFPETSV
Description: whole-cell patch-clamp of hTRPV3 T636A mutant currents. As to conditions: ROSA 100 μM; 2-APB; read-out: inhibition of macroscopic hTRPV3 T636A currents. In kind it is cell-based. As for the experimental part:
as §1, §2

Assay [3] relates to Car-induced ear swelling and dorsal skin inflammation in mice. Description: mouse model of ear swelling and dorsal skin inflammation induced by skin sensitizer Car (3%). The assay is classed as in vivo. An excerpt:
Adult C57BL/6J mice (aged 6–8 weeks, weighing 20 ± 2 g) were purchased from the Beijing Vital River Laboratory Animal Technology Co. Ltd. TRPV3-KO mice were purchased from Cyagen Biosciences Inc. All mice were housed in plastic cages with natural poplar wood bedding materials, accommodating three to five mice per cage. The housing environment was maintained at a controlled room temperature of (23 ± 2) °C and humidity of (50 ± 5) %, with 12-h light/dark cycle (lights on at 7:00 AM and off at 7:00 PM). Mice had free access to food and water. All animal test protocols were approved by the Institutional Animal Care and Use Committee of Qingdao University Health Science Center and were conducted in accordance with institutional and national guidelines for the use and care of animals in experiments. All mice were anesthetized with isoflurane (1%–1.5%) using an isoflurane gas anesthesia device and were euthanized under anesthesia.
Skin sensitizer Car was dissolved in saline solution containing 30% ethanol. The dorsal skin or ear of mice was swabbed with 3% Car for four consecutive days. To investigate the effects of ROSA, it was diluted to concentration of 0.1/1/10 mM with saline and topically applied on the ear and dorsal skin once a day for 4 days. The control group only received swabs with the solvent.

T1 sequence (O75762 whole entry): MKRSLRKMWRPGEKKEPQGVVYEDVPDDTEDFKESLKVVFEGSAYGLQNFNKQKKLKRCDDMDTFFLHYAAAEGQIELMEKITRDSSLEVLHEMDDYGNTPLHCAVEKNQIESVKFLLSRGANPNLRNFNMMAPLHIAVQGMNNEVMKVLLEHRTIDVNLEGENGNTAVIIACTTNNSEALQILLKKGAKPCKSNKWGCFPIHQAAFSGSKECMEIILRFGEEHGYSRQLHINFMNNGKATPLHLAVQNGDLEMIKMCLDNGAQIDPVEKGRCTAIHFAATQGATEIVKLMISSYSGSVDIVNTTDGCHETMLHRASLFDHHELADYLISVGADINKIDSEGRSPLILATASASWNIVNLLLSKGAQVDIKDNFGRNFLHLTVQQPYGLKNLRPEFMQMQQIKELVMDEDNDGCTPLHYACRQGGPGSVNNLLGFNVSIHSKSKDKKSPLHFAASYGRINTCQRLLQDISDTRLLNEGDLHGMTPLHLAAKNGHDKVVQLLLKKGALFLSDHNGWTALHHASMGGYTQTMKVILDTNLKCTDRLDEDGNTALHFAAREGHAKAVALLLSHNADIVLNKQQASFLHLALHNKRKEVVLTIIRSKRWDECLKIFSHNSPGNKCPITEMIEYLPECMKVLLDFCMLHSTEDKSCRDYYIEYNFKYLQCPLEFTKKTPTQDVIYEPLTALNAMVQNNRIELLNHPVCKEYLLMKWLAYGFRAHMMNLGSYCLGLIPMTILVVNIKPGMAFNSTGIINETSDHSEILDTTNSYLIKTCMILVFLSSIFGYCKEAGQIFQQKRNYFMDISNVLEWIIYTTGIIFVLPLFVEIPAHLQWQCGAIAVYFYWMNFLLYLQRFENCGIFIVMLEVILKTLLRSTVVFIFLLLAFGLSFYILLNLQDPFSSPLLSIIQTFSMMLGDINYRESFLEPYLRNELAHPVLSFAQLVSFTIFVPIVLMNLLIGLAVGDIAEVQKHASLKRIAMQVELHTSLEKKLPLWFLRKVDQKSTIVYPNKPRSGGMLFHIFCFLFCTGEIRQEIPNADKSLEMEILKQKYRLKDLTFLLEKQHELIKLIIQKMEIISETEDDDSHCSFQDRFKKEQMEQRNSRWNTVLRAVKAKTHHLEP

The inhibition is the percentage by which the read-out fell short of the control. With `O=C(/C=C/c1ccc(O)c(O)c1)O[C@H](Cc1ccc(O)c(O)c1)C(=O)O` [ROSA, rosmarinic acid], the inhibition at 50 µM in assay [1] came to 4.5 ± 3.6%. The inhibition at 100 µM in assay [2] came out at 14.7%. Moreover, the “ear thickness in Trpv3 KO mice” value in assay [3] (topical ROSA 10 mM, Trpv3 KO mice, Car) was “no further reduction of ear thickness”. The “ear and dorsal skin inflammation” value in assay [3] (topical ROSA 0.1, 1.0 and 10 mM once a day for 4 days, 3% Car, compared to Car alone) was “significantly alleviated the ear and dorsal skin inflammation”. Besides, the ear swelling scores result in assay [3] (topical ROSA 0.1, 1.0 and 10 mM, 3% Car, compared to Car alone) was “reduced the ear swelling scores in both dose- and time-dependent manner”. The ear thickness entry in assay [3] (topical ROSA, 3% Car, compared to Car alone) is given as “reduction in ear thickness was also evident, starting on the third day”. Moreover, in assay [3] (topical ROSA, 3% Car, fourth day), the “dermatitis scores, dorsal skin” value is “significant difference in dermatitis scores between the ROSA group and the Car group”.
